According to patent US20240024488A1, “COMPOUNDS AND USES THEREOF” (Foghorn Therapeutics Inc., priority 2020, published 2024):

Experiments:
[1] = target: T1, HiBit-BRG1 fusion protein (Homo sapiens, UniProt P51532); assay: HiBiT-BRG1 cell-based degradation assay (Nano-Glo HiBiT Lytic Detection, 24 h); conditions: HeLa cell line expressing HiBit-BRG1 and LgBit; for Dmax: read-out: BRG1 HiBit Degradation Maximum (%); for DC50: read-out: BRMG1 HiBit Degradation IC50
T1 construct: expressed in transfected cells
Method in brief: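 HeLa cells stably expressing HiBiT-BRG1 plus LgBit, 5000/well, treated 24 h, then lysed with Nano-Glo HiBiT lytic reagent and luminescence read. % degradation normalised between DMSO (high control) and 2 μM reference BRM/BRG1 degrader (low control).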

HiBit-BRM fusion protein = target: T2, HiBit-BRM fusion protein (Homo sapiens, UniProt P51531); assay: HiBiT-BRM cell-based degradation assay (Nano-Glo HiBiT Lytic Detection, 24 h); conditions: HeLa cell line expressing HiBiT-BRM; for DC50: read-out: BRM HiBit Degradation IC50
T2 construct: expressed in transfected cells
Method in brief: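 Stable HiBiT-BRM HeLa line; 24 h compound exposure, top final 30 μM, 3-fold, 10 pts in duplicate. Lytic HiBiT/LgBiT luminescence readout. % degradation vs DMSO (0%) and 2 μM known BRM/BRG1 degrader (100%).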

T1 sequence (P51532 whole entry, the tested form may be a part): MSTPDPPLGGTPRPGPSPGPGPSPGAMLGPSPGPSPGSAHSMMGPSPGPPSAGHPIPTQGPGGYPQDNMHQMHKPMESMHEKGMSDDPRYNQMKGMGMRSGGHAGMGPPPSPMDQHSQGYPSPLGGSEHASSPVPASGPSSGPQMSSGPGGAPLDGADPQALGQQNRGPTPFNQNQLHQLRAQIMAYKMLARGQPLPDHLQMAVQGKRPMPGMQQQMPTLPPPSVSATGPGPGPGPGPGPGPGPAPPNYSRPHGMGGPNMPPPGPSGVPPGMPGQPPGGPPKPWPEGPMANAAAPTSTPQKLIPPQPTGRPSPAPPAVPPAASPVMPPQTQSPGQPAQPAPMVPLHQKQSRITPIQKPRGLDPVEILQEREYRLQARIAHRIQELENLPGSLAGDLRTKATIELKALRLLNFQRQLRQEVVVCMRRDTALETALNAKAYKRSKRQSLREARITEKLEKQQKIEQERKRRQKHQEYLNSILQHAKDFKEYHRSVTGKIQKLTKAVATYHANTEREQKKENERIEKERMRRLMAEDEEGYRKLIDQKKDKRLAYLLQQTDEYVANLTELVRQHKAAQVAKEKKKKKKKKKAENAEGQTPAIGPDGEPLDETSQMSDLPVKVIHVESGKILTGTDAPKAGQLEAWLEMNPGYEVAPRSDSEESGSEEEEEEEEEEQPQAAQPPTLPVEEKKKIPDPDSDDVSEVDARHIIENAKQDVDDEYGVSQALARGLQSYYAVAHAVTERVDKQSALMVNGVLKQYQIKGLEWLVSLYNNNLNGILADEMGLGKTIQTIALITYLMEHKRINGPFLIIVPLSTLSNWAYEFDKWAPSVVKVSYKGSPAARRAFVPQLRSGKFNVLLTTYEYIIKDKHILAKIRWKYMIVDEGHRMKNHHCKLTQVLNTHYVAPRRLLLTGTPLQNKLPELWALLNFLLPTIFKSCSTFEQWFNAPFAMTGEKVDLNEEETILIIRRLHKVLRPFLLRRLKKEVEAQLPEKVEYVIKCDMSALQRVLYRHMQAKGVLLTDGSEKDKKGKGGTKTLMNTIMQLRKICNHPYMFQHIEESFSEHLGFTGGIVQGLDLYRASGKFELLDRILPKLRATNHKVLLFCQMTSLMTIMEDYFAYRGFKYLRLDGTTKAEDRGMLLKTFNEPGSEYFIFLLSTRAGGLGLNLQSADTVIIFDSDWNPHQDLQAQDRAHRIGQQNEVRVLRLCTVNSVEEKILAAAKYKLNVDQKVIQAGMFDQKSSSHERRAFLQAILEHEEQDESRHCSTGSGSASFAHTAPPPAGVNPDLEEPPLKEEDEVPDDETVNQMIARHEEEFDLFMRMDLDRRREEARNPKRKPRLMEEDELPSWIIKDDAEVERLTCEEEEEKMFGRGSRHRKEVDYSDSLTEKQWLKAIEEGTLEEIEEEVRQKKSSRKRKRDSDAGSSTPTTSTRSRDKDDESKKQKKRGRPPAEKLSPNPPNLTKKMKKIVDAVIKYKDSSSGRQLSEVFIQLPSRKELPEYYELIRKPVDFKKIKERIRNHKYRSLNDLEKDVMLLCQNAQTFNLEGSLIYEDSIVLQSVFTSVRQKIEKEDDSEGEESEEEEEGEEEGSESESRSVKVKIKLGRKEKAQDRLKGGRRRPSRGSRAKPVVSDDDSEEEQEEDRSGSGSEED
T2 sequence (P51531 whole entry, the tested form may be a part): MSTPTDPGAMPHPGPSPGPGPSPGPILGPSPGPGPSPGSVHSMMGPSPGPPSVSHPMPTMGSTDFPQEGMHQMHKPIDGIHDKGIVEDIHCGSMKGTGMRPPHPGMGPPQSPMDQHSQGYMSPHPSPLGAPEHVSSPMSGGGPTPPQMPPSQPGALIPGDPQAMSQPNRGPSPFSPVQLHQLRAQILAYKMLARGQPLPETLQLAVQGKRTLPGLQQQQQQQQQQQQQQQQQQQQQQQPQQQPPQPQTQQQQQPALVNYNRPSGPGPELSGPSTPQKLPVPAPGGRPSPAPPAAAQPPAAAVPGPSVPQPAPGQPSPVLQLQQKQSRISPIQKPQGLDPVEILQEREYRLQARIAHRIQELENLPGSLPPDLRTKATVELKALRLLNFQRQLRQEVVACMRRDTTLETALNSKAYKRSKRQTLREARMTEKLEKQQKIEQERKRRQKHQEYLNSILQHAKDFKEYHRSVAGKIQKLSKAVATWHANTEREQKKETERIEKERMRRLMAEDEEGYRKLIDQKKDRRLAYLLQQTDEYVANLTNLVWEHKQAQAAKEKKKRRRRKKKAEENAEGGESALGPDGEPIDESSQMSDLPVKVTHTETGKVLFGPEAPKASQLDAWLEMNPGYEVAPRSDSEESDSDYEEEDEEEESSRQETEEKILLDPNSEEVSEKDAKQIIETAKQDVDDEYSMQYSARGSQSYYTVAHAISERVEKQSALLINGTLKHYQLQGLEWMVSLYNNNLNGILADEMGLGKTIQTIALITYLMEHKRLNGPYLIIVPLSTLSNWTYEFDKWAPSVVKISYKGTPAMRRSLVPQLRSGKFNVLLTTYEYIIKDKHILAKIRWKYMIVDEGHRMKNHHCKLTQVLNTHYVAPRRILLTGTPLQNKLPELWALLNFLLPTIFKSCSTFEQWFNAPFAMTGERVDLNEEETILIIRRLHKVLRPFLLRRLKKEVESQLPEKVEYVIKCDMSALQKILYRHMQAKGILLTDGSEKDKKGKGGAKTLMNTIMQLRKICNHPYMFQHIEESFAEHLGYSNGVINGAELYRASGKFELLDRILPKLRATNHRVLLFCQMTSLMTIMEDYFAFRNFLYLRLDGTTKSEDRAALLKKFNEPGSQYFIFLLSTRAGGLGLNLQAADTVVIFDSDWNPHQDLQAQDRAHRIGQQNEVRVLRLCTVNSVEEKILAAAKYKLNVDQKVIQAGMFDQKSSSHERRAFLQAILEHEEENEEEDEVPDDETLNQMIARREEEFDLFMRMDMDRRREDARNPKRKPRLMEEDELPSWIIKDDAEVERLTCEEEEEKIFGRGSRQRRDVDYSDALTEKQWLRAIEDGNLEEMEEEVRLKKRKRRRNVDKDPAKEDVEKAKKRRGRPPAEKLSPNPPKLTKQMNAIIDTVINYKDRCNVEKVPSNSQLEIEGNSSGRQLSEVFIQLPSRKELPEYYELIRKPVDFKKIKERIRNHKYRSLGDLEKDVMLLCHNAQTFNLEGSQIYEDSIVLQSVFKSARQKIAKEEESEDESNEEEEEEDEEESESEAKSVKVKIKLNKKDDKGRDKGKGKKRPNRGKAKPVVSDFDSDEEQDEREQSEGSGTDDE

Row | SMILES | Dmax [1] [%] | DC50 [1] [nM] | BRM HiBit Degradation Maximum (%) (HiBit-BRM fusion protein) | DC50 (HiBit-BRM fusion protein) [nM]
1 | Cc1ncsc1-c1ccc([C@H](C)NC(=O)[C@@H]2C[C@@H](O)CN2C(=O)[C@@H](c2cc(OCCN3CC(c4[nH]c5nnc(-c6ccccc6O)cc5c4C)C3)no2)C(C)C)cc1 (racemic) [Compound 307, (2S,4R)-4-hydroxy-1-((R)-2-(3-(2-(3-(3-(2-hydroxyphenyl)-5-methyl-7H-pyrrolo[2,3-c]pyridazin-6-yl)azetidin-1-yl)ethoxy)isoxazol-5-yl)-3-methylbutanoyl)-N-((S)-1-(4-(4-methylthiazol-5-yl)phenyl)ethyl)pyrrolidine-2-carboxamide] | > 75 | > 10 | A (“A” indicates maximum degradation ≥ 75%) | < 10
2 | Cc1ncsc1-c1ccc([C@H](C)NC(=O)[C@@H]2C[C@@H](O)CN2C(=O)[C@@H](c2cc(OCCN3C[C@@H]4[C@H](C3)[C@H]4c3cc4cc(-c5ccccc5O)nnc4[nH]3)no2)C(C)C)cc1 (racemic) [Compound 308, (2S,4R)-4-hydroxy-1-((R)-2-(3-(2-((1R,5S,6R)-6-(3-(2-hydroxyphenyl)-7H-pyrrolo[2,3-c]pyridazin-6-yl)-3-azabicyclo[3.1.0]hexan-3-yl)ethoxy)isoxazol-5-yl)-3-methylbutanoyl)-N-((S)-1-(4-(4-methylthiazol-5-yl)phenyl)ethyl)pyrrolidine-2-carboxamide] | > 75 | > 10 | A (“A” indicates maximum degradation ≥ 75%) | < 10
3 | Cc1ncsc1-c1ccc([C@H](C)NC(=O)[C@@H]2C[C@@H](O)CN2C(=O)C(c2cc(OCCNC3(C(=O)O)CCc4[nH]c5nnc(-c6ccccc6O)cc5c4C3)no2)C(C)C)cc1 (relative stereo) [Compound 90, (6R*)-6-({2-[(5-{1-[(2S,4R)-4-hydroxy-2-{[(1S)-1-[4-(4-methyl-1,3-thiazol-5-yl)phenyl]ethyl]carbamoyl}pyrrolidin-1-yl]-3-methyl-1-oxobutan-2-yl}-1,2-oxazol-3-yl)oxy]ethyl}amino)-3-(2-hydroxyphenyl)-5H,7H,8H,9H-pyridazino[3,4-b]indole-6-carboxylic acid] | < 50 |  | A (“A” indicates maximum degradation ≥ 75%) | > 1000
4 | Cc1ncsc1-c1ccc([C@H](C)NC(=O)[C@@H]2C[C@@H](O)CN2C(=O)[C@@H](c2cc(C3CCN(C(=O)[C@@]4(N)CCc5[nH]c6nnc(-c7ccccc7O)cc6c5C4)CC3)no2)C(C)C)cc1 (relative stereo) [Compound 103, (2S,4R)-1-[(2R)-2-(3-{1-[(6R*)-6-amino-3-(2-hydroxyphenyl)-5H,7H,8H,9H-pyridazino[3,4-blindole-6-carbonyl]piperidin-4-yl}-1,2-oxazol-5-yl)-3-methylbutanoyl]-4-hydroxy-N-[(1S)-1-[4-(4-methyl-1,3-thiazol-5-yl)phenyl]ethyl]pyrrolidine-2-carboxamide] | < 50 |  | B (“B” indicates maximum degradation ≥ 50%) | > 100
5 | Cc1ncsc1-c1ccc([C@H](C)NC(=O)[C@@H]2C[C@@H](O)CN2C(=O)[C@@H](c2cc(C3CCN(C(=O)[C@]4(N)CCc5[nH]c6nnc(-c7ccccc7O)cc6c5C4)CC3)no2)C(C)C)cc1 (relative stereo) [Compound 104, (2S,4R)-1-[(2R)-2-(3-{1-[(6R*)-6-amino-3-(2-hydroxyphenyl)-5H,7H,8H,9H-pyridazino[3,4-blindole-6-carbonyl]piperidin-4-yl}-1,2-oxazol-5-yl)-3-methylbutanoyl]-4-hydroxy-N-[(1S)-1-[4-(4-methyl-1,3-thiazol-5-yl)phenyl]ethyl]pyrrolidine-2-carboxamide] | < 50 |  | B (“B” indicates maximum degradation ≥ 50%) | > 100
6 | Cc1ncsc1-c1ccc([C@H](C)NC(=O)[C@@H]2C[C@@H](O)CN2C(=O)[C@@H](c2cc(C3CN(C(=O)[C@H]4CCc5[nH]c6nnc(-c7ccccc7O)cc6c5C4)C3)no2)C(C)C)cc1 (relative stereo) [Compound 157, (2S,4R)-4-hydroxy-1-[(2R*)-2-(3-{1-[(6R**)-3-(2-hydroxyphenyl)-5H,6H,7H,8H,9H-pyridazino[3,4-b]indole-6-carbonyl]azetidin-3-yl}-1,2-oxazol-5-yl)-3-methylbutanoyl]-N-[(1S)-1-[4-(4-methyl-1,3-thiazol-5-yl)phenyl]ethyl]pyrrolidine-2-carboxamide] | > 75 | > 100 | A (“A” indicates maximum degradation ≥ 75%) | > 100
7 | Cc1ncsc1-c1ccc(CNC(=O)[C@@H]2C[C@@H](O)CN2C(=O)[C@@H](NC(=O)CCC(=O)N[C@H]2CCc3[nH]c4nnc(-c5ccccc5O)cc4c3C2)C(C)(C)C)cc1 (relative stereo) [Compound 174, N1-((S)-1-((2S,4R)-4-hydroxy-2-((4-(4-methylthiazol-5-yl)benzyl)carbamoyl)pyrrolidin-1-yl)-3,3-dimethyl-1-oxobutan-2-yl)-N4-((S)-3-(2-hydroxyphenyl)-6,7,8,9-tetrahydro-5H-pyridazino[3,4-b]indol-6-yl)succinamide] | < 50 |  | B (“B” indicates maximum degradation ≥ 50%) | > 1000
8 | Cc1ncsc1-c1ccc(CNC(=O)[C@@H]2C[C@@H](O)CN2C(=O)[C@@H](NC(=O)CCCCC(=O)N[C@H]2CCc3[nH]c4nnc(-c5ccccc5O)cc4c3C2)C(C)(C)C)cc1 (relative stereo) [Compound 175, N1-((S)-1-((2S,4R)-4-hydroxy-2-((4-(4-methylthiazol-5-yl)benzyl)carbamoyl)pyrrolidin-1-yl)-3,3-dimethyl-1-oxobutan-2-yl)-N6-((S)-3-(2-hydroxyphenyl)-6,7,8,9-tetrahydro-5H-pyridazino[3,4-b]indol-6-yl)adipamide] | < 50 |  | A (“A” indicates maximum degradation ≥ 75%) | > 1000
9 | Cc1ncsc1-c1ccc([C@H](C)NC(=O)[C@@H]2C[C@@H](O)CN2C(=O)[C@@H](c2cc(-c3cnc(N4CCc5[nH]c6nnc(-c7ccccc7O)cc6c5C4)nc3)no2)C(C)C)cc1 (single isomer, unassigned) [Compound 85] | > 75 | > 100 | A (“A” indicates maximum degradation ≥ 75%) | > 10
10 | Cc1ncsc1-c1ccc([C@H](C)NC(=O)[C@@H]2C[C@@H](O)CN2C(=O)C(c2cc(OCC(=O)N[C@@]3(C(=O)O)CCc4[nH]c5nnc(-c6ccccc6O)cc5c4C3)no2)C(C)C)cc1 (single isomer, unassigned) [Compound 88] | < 50 |  | C (“C” indicates maximum degradation < 50%) | 
11 | Cc1ncsc1-c1ccc([C@H](C)NC(=O)[C@@H]2C[C@@H](O)CN2C(=O)C(c2cc(OCC(=O)N[C@]3(C(=O)O)CCc4[nH]c5nnc(-c6ccccc6O)cc5c4C3)no2)C(C)C)cc1 (single isomer, unassigned) [Compound 89] | < 50 |  | C (“C” indicates maximum degradation < 50%) | 
12 | Cc1ncsc1-c1ccc([C@H](C)NC(=O)[C@@H]2C[C@@H](O)CN2C(=O)C(c2cc(OCCN[C@]3(C(=O)O)CCc4[nH]c5nnc(-c6ccccc6O)cc5c4C3)no2)C(C)C)cc1 (single isomer, unassigned) [Compound 91] | < 50 |  | C (“C” indicates maximum degradation < 50%) | 
13 | Cc1ncsc1-c1ccc([C@H](C)NC(=O)[C@@H]2C[C@@H](O)CN2C(=O)[C@@H](c2cc(N3CCC(c4cnc(N5CCC(c6c[nH]c7nnc(-c8ccccc8O)cc67)CC5)nc4)CC3)no2)C(C)C)cc1 (single isomer, unassigned) [Compound 92] | > 75 | > 10 | A (“A” indicates maximum degradation ≥ 75%) | > 10
14 | Cc1ncsc1-c1ccc([C@H](C)NC(=O)[C@@H]2C[C@@H](O)CN2C(=O)[C@H](c2cc(N3C[C@@H]4C[C@H]3CN4C(=O)[C@@H]3CCc4[nH]c5nnc(-c6ccccc6O)cc5c4C3)no2)C(C)C)cc1 (single isomer, unassigned) [Compound 100] | < 50 |  | C (“C” indicates maximum degradation < 50%) | 
15 | Cc1ncsc1-c1ccc([C@H](C)NC(=O)[C@@H]2C[C@@H](O)CN2C(=O)[C@@H](c2cc(N3C[C@@H]4C[C@H]3CN4C(=O)[C@@H]3CCc4[nH]c5nnc(-c6ccccc6O)cc5c4C3)no2)C(C)C)cc1 (single isomer, unassigned) [Compound 102] | < 50 |  | A (“A” indicates maximum degradation ≥ 75%) | 
16 | Cc1ncsc1-c1ccc([C@H](C)NC(=O)C2C[C@@H](O)CN2C(=O)[C@@H](c2cc(OCCN3C[C@H]4C[C@@H](c5[nH]c6nnc(-c7ccccc7O)cc6c5C)C[C@H]4C3)no2)C(C)C)cc1 (single isomer, unassigned) [Compound 108] | > 75 | > 10 | A (“A” indicates maximum degradation ≥ 75%) | < 10
17 | Cc1ncsc1-c1ccc([C@H](C)NC(=O)C2C[C@@H](O)CN2C(=O)[C@@H](c2cc(OCCN3C[C@H]4C[C@H](c5[nH]c6nnc(-c7ccccc7O)cc6c5C)C[C@H]4C3)no2)C(C)C)cc1 (single isomer, unassigned) [Compound 112] | > 75 | > 10 | A (“A” indicates maximum degradation ≥ 75%) | < 10
